Laboratory results taken from PubChem BioAssay AID192 (DTP/NCI, 2004).
“And” between values parts separate entries of the source, which are not always exact repeats. Identical values can stand only once. Toxic doses and inconclusive results are not listed. The calls were made as follows: active = survival T/C of 150% or more; inactive = T/C below 125% in these data.

Tested on: BDF1 mice, B16 melanoma ip, median survival T/C
Assay: NCI In Vivo Anticancer Drug Screen. Data for tumor model B16 Melanoma (intraperitoneal) in B6D2F1 (BDF1) mice
Details: endpoint: median survival time, higher = longer survival
Outline: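 Values are ratios of treated (T) to vehicle-control (C) measurements of survival or tumor size in tumor-bearing mice.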

Measured: T/C

COc1cc2cc3c4cc(OC)c(OC)cc4cc[n+]3c(C)c2cc1OC (tested in a mixture with another compound)
inactive: dose: 6.25 mg/kg/injection, schedule: Q01DX009 (ip), vehicle: saline 106 % of control | dose: 6.25 mg/kg/injection, schedule: Q04DX003 (ip), vehicle: saline with Tween-80 88 % of control | dose: 6.25 mg/kg/injection, schedule: Q04DX003 (ip), vehicle: saline 107 % of control | dose: 8.0 mg/kg/injection, schedule: Q01DX009 (ip), vehicle: Klucel (hydroxypropylcellulose) (HPC) 90 % of control and 91 % of control | dose: 8.0 mg/kg/injection, schedule: Q01DX009 (ip), vehicle: clinical formulation 100 % of control and 109 % of control | dose: 8.0 mg/kg/injection, schedule: Q01DX009 (ip), vehicle: other 99 % of control and 107 % of control | dose: 8.0 mg/kg/injection, schedule: Q01DX009 (ip), vehicle: water 87 % of control | dose: 12.5 mg/kg/injection, schedule: Q01DX009 (ip), vehicle: saline 93 % of control | dose: 12.5 mg/kg/injection, schedule: Q01DX009 (ip), vehicle: water 95 % of control | dose: 12.5 mg/kg/injection, schedule: Q04DX003 (ip), vehicle: saline with Tween-80 100 % of control | dose: 12.5 mg/kg/injection, schedule: Q04DX003 (ip), vehicle: saline 105 % of control | dose: 16.0 mg/kg/injection, schedule: Q01DX009 (ip), vehicle: Klucel (hydroxypropylcellulose) (HPC) 91 % of control and 92 % of control and 96 % of control | dose: 16.0 mg/kg/injection, schedule: Q01DX009 (ip), vehicle: clinical formulation 94 % of control and 106 % of control | dose: 16.0 mg/kg/injection, schedule: Q01DX009 (ip), vehicle: other 97 % of control and 111 % of control and 123 % of control | dose: 16.0 mg/kg/injection, schedule: Q01DX009 (ip), vehicle: water 96 % of control and 106 % of control | dose: 25.0 mg/kg/injection, schedule: Q01DX009 (ip), vehicle: saline 87 % of control | dose: 25.0 mg/kg/injection, schedule: Q01DX009 (ip), vehicle: water 109 % of control | dose: 25.0 mg/kg/injection, schedule: Q04DX003 (ip), vehicle: saline with Tween-80 102 % of control | dose: 25.0 mg/kg/injection, schedule: Q04DX003 (ip), vehicle: saline 102 % of control | dose: 32.0 mg/kg/injection, schedule: Q01DX009 (ip), vehicle: Klucel (hydroxypropylcellulose) (HPC) 90 % of control and 93 % of control and 95 % of control | dose: 32.0 mg/kg/injection, schedule: Q01DX009 (ip), vehicle: clinical formulation 96 % of control and 105 % of control | dose: 32.0 mg/kg/injection, schedule: Q01DX009 (ip), vehicle: other 103 % of control and 105 % of control (2×) | dose: 32.0 mg/kg/injection, schedule: Q01DX009 (ip), vehicle: water 94 % of control and 111 % of control | dose: 33.0 mg/kg/injection, schedule: Q01DX009 (ip), vehicle: saline with Tween-80 105 % of control | dose: 50.0 mg/kg/injection, schedule: Q01DX009 (ip), vehicle: saline with Tween-80 110 % of control | dose: 50.0 mg/kg/injection, schedule: Q01DX009 (ip), vehicle: water 93 % of control | dose: 50.0 mg/kg/injection, schedule: Q04DX003 (ip), vehicle: saline with Tween-80 97 % of control | dose: 50.0 mg/kg/injection, schedule: Q04DX003 (ip), vehicle: saline 100 % of control | dose: 64.0 mg/kg/injection, schedule: Q01DX009 (ip), vehicle: Klucel (hydroxypropylcellulose) (HPC) 89 % of control and 91 % of control and 94 % of control | dose: 64.0 mg/kg/injection, schedule: Q01DX009 (ip), vehicle: clinical formulation 104 % of control | dose: 64.0 mg/kg/injection, schedule: Q01DX009 (ip), vehicle: other 100 % of control and 104 % of control | dose: 75.0 mg/kg/injection, schedule: Q01DX009 (ip), vehicle: saline with Tween-80 101 % of control | dose: 100.0 mg/kg/injection, schedule: Q01DX009 (ip), vehicle: saline 106 % of control | dose: 100.0 mg/kg/injection, schedule: Q01DX009 (ip), vehicle: water 91 % of control | dose: 100.0 mg/kg/injection, schedule: Q04DX003 (ip), vehicle: saline 94 % of control | dose: 128.0 mg/kg/injection, schedule: Q01DX009 (ip), vehicle: Klucel (hydroxypropylcellulose) (HPC) 91 % of control and 93 % of control | dose: 200.0 mg/kg/injection, schedule: Q04DX003 (ip), vehicle: saline with Tween-80 88 % of control | dose: 200.0 mg/kg/injection, schedule: Q04DX003 (ip), vehicle: saline 100 % of control

CCCCCCCCCCCCCC(=O)CC
inactive: dose: 9.4 mg/kg/injection, schedule: Q01DX009 (ip), vehicle: saline with Tween-80 95 % of control | dose: 18.75 mg/kg/injection, schedule: Q01DX009 (ip), vehicle: saline with Tween-80 87 % of control
